Assay results published in paper PMC3478134 (Cancer cell, 2012).

Columns and labels:
CCRF-CEM leukemic tumors = experiment: CCRF-CEM leukemic xenograft; conditions: 10 mg/kg twice weekly for 3 weeks
INA-6 MM tumors = experiment: SCID-hu model, INA-6 MM tumors, serum shIL-6R; assay type: in vivo, mice; conditions: 10 mg/kg
USP7 [1] = target: T1, USP7 (Homo sapiens, UniProt Q93009); experiment: Cellular USP7 activity in MM.1S cells, Ub-EKL assay after immunoprecipitation; assay type: cell-based; conditions: 3 hr, concentration-dependent
T1 sequence (Q93009 whole entry): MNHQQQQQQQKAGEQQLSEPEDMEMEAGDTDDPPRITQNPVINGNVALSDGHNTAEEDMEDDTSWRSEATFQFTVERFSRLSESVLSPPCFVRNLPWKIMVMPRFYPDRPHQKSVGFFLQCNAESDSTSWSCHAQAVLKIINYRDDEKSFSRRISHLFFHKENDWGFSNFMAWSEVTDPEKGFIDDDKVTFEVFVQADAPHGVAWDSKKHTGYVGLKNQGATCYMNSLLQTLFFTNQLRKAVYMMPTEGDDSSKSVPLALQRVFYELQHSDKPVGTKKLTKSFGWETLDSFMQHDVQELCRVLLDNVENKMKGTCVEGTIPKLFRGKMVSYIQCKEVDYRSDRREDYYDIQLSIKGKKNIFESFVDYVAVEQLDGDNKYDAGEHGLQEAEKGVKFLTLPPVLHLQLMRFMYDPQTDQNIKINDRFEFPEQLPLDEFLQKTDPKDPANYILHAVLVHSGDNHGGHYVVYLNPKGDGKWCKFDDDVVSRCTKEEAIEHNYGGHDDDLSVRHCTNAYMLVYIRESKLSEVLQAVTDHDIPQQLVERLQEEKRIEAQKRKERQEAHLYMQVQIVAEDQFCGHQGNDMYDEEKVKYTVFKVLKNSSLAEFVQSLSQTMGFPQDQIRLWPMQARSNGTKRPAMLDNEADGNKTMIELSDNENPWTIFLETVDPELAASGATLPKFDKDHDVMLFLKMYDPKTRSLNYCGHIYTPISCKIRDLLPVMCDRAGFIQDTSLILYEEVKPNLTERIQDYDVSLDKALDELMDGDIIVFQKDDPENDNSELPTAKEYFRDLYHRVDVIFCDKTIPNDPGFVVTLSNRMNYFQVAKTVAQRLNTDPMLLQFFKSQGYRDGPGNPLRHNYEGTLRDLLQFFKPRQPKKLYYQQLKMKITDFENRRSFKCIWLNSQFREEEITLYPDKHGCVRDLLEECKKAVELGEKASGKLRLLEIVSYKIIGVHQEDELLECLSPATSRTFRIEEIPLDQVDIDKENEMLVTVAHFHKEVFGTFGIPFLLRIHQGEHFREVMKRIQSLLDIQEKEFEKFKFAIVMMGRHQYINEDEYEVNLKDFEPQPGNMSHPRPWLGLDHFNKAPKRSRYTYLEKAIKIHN

[2] = mouse, in vivo
UCHL3 = UCHL3 (Homo sapiens, UniProt P15374); experiment: DUB inhibition in cells; assay type: cell-based; conditions: Fig S1A
UCHL3, sequence (P15374 whole entry): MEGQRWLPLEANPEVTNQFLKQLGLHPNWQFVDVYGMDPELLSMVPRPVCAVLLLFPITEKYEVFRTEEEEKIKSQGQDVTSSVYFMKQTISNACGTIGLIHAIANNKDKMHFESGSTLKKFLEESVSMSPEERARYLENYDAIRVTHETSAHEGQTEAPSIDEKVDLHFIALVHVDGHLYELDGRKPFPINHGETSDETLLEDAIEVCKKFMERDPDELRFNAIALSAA

ARP-1 MM tumors = experiment: Human p53-null ARP-1 MM xenograft
p53^−/−/MDM2^−/− MEFs = experiment: Viability, p53^−/−/MDM2^−/− MEFs; assay type: cell-based, mouse; conditions: 48 hr
HCT116 p21^−/− cells = conditions: 48 hr, versus HCT116 (WT)
USP5 = USP5 (Homo sapiens, UniProt P45974); experiment: DUB inhibition in cells; assay type: cell-based; conditions: Fig S1A
USP5, sequence (P45974 whole entry): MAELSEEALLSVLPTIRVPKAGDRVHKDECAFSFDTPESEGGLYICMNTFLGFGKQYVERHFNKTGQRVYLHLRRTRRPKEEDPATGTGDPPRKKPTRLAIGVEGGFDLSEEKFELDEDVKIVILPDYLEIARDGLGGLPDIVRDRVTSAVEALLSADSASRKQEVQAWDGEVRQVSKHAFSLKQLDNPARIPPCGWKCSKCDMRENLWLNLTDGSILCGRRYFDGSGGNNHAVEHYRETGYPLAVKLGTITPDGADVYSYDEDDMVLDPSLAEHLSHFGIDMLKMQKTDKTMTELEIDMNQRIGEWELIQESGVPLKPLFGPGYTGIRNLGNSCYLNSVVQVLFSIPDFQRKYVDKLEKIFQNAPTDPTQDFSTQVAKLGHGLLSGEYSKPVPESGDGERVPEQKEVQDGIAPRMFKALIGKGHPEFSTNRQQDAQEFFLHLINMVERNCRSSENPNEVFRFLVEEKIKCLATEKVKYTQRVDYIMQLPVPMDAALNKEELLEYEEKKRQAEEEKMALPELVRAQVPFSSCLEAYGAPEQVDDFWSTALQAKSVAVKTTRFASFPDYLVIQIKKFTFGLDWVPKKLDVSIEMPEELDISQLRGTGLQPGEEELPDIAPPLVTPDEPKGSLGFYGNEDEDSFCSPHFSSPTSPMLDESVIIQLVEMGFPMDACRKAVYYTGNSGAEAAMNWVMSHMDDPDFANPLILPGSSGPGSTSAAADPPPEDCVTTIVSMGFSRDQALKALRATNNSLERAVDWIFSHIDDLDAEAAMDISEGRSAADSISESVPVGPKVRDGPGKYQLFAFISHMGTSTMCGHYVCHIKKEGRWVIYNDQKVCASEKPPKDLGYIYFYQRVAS

USP7 [3] = target: T1, USP7; experiment: HA-UbVME active site probe competition, HEK293T cells; assay type: cell-based; conditions: lysates from treated HEK293T cells; concentrations as low as
ARP-1 MM cells = experiment: Viability, p53-null ARP-1 MM cells; assay type: cell-based, human; conditions: p53-null ARP-1, 48 hr
MM.1S cells [4] = experiment: Viability of scr- or p21-siRNA transfected MM.1S cells; assay type: cell-based, human; conditions: 48 hr
[5] = Tolerability in tumor-bearing mice; conditions: twice-weekly schedule
[6] = system: MM.1S cells cultured with BMSCs; experiment: MM.1S proliferation with BMSCs, 3H-TdR uptake; assay type: cell-based, human; conditions: 72 hr
MM.1S cells [7] = experiment: Viability of scr- or p53-siRNA transfected MM.1S cells; assay type: cell-based, human; conditions: 48 hr
HDM2 = HDM2 ubiquitylation; assay type: cell-based; conditions: U2OS
other DUBs = experiment: HA-UbVME probe labeling of other DUBs, HEK293T cells; assay type: cell-based; conditions: even at 40 μM
HCT116 USP7^−/− cells = experiment: MTT viability, HCT116 USP7^−/−; assay type: cell-based, human; conditions: HCT116 USP7^−/− versus WT
HDM2, HDMX, p53, p21 = experiment: Immunoblot of HDM2/HDMX/p53/p21 in MM.1S and RPMI-8226 cells; assay type: cell-based, human; conditions: 6.25 and 12.5 μM, 24 hr
UCHL1 = UCHL1 (Homo sapiens, UniProt P09936); experiment: DUB inhibition in cells; assay type: cell-based; conditions: Fig S1A
UCHL1, sequence (P09936 whole entry): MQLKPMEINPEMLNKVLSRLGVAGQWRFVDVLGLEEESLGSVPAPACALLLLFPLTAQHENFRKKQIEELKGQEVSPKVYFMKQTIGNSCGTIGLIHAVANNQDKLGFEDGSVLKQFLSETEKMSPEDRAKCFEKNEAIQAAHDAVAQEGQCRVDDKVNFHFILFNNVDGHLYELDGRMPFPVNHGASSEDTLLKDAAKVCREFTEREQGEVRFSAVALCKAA

p53^−/− MEFs = experiment: Viability, p53^−/− MEFs; assay type: cell-based, mouse; conditions: 48 hr
proteasome = experiment: Proteasome activity in MM.1S cells; assay type: cell-based, human; conditions: for Chymotrypsin-like (CT-L) proteasome activity: MM.1S cells, 3 hr
MM.1S MM tumors = experiment: Human MM.1S plasmacytoma xenograft
MM.1S cells [8] = experiment: Viability of scr- or HDM2-siRNA transfected MM.1S cells; assay type: cell-based, human; conditions: 24 hr
[9] = system: other DUBs or other families of cysteine proteases; experiment: Ub-PLA2 / protease panel, selectivity; assay type: biochemical; conditions: read-out: EC50, other DUBs or other families of cysteine proteases; Fig 1D
USP7 [10] = target: T1, USP7; experiment: Ub-PLA2 isopeptidase reporter assay, USP7; assay type: biochemical; conditions: for USP7 inhibitory activity (SAR): Fig 1C/1D
ANBL-6.WT cells = experiment: Cell viability, ANBL-6.WT; assay type: cell-based
MM cells = experiment: Apoptosis; assay type: cell-based, human; conditions: Fig S3E
U2OS cells = experiment: IC50 in U2OS cells; assay type: cell-based
HCT116 (WT) cells = experiment: MTT viability, HCT116; assay type: cell-based, human; conditions: 24, 48, 72 hr
USP7 [11] = target: T1, USP7; experiment: Ubiquitin-linked K48 chain cleavage assay, USP7; assay type: biochemical; conditions: Ub7 and K48-linked chains
[12] = system: HCT116 p53 (WT) and HCT116 p53^−/− cells; experiment: Viability, HCT116 p53; assay type: cell-based, human; conditions: 72 hr
ANBL-6.BR cells = experiment: Cell viability, ANBL-6.BR; assay type: cell-based
[13] = system: purified patient MM cells; experiment: Purified patient MM cell viability; assay type: cell-based, human; conditions: 8 MM patients, 48 hr
MM cell lines = experiment: MM cell line viability; assay type: cell-based, human
[14] = system: MM cells from bortezomib-resistant patients; experiment: Viability of MM cells from bortezomib-resistant patients; assay type: cell-based, human; conditions: 12.5 nM, 48 hr, in 3 of 6 samples
[15] = 10 mg/kg IV twice weekly for 3 weeks

CC(=O)c1cc([N+](=O)[O-])c(Sc2cccc(Cl)c2Cl)s1 [P5091]
Survival (CCRF-CEM leukemic tumors): prolongs survival
Tumor growth (CCRF-CEM leukemic tumors): inhibits leukemic tumor growth
Tumor growth (serum shIL-6R) (INA-6 MM tumors): inhibited tumor growth
Inhibition of USP7 activity (USP7 [1]): > 50%
Blood chemistry profile [2]: normal levels of bilirubin, hemoglobin, and creatinine
Weight loss [2]: no significant weight loss
Inhibition of UCHL3 (UCHL3): did not inhibit
Survival (ARP-1 MM tumors; [15]): prolongs survival
Tumor growth (ARP-1 MM tumors; [15]): inhibits MM tumor growth
USP7 activity in tumors (ARP-1 MM tumors; compared with control mice, at 3 hr): marked inhibition of USP7 activity
IC50 (p53^−/−/MDM2^−/− MEFs): 20.9 µM
Cytotoxicity in HCT116 p21^−/− cells (HCT116 p21^−/− cells): significantly blocked
Inhibition of USP5 (USP5): did not inhibit
Concentration inhibiting Ub-USP7 conjugate formation (HA-UbVME labeling) (USP7 [3]): 5 to 10 µM
Cell viability (ARP-1 MM cells): decreases the viability
Effect of p21 silencing with siRNA on cytotoxicity (MM.1S cells [4]): attenuates P5091-induced cytotoxicity
MTD dose [5]: 20 mg/kg
BMSCs-induced proliferation of MM.1S [6]: inhibited BMSCs-induced proliferation
Effect of p53 depletion by siRNA on drug-induced decrease in viability (MM.1S cells [7]): does not affect
HDM2 degradation (HDM2; 15 μM, versus CHX alone): accelerates the degradation of HDM2
HDM2 ubiquitination (HDM2; HA-Ub transfected, 30 μM, 4 hr): markedly increases HDM2 ubiquitination
Labeling of other DUBs with Ub-VME (other DUBs): No gross difference
Cytotoxic activity (HCT116 USP7^−/− cells): marked reduction in P5091 cytotoxic activity
HDM2, HDMX, p53 and p21 protein levels (HDM2, HDMX, p53, p21): decreased HDM2 and HDMX, as well as upregulated p53 and p21 levels
Inhibition of UCHL1 (UCHL1): did not inhibit
IC50 (p53^−/− MEFs): 7.72 µM
Caspase-like (C-L) proteasome activity (proteasome; 25–50 μM): no effect
Trypsin-like (T-L) proteasome activity (proteasome; 25–50 μM): no effect
Chymotrypsin-like (CT-L) proteasome activity (proteasome): no significant inhibition
Survival (MM.1S MM tumors; [15]): prolongs survival
Tumor growth (MM.1S MM tumors; [15]): inhibits MM tumor growth
Proliferation in harvested tumors (MM.1S MM tumors; BrdU and Ki67 staining): decreases proliferation
Apoptotic tumor cells (MM.1S MM tumors; cleaved caspase-3, TUNEL, versus vehicle): increases the number of cleaved-caspase-3-, and TUNEL-positive apoptotic tumor cells
Angiogenesis markers in tumors (MM.1S MM tumors; immunostaining VEGFR2, PECAM1): decreases the number of VEGFR2- and PECAM1-positive cells
USP7 activity in harvested tumors (MM.1S MM tumors; relative to control mice): inhibited USP7 activity
Percentage of viable cells (MM.1S cells [8]; HDM2-siRNA, P5091 6.25 μM): 73.3%
Percentage of viable cells (MM.1S cells [8]; HDM2-siRNA, P5091 12.5 μM): 19.2%
Percentage of viable cells (MM.1S cells [8]; scr-siRNA, P5091 6.25 μM): 47.2%
Percentage of viable cells (MM.1S cells [8]; scr-siRNA, P5091 12.5 μM): 8.6%
EC50 [9]: > 100 µM
EC50 (USP7 [10]; read-out: EC50, deubiquitylating activity against USP7, Ub-PLA2 reporter assay): 4.2 ± 0.9 µM
IC50 (ANBL-6.WT cells; ANBL-6.WT, 48 hr): 6.83 µM
Apoptosis (Annexin V/PI) (MM cells): accumulation of cells in early (Ann V^+/PI^−) and late stage (Ann V^+/PI^+) apoptosis
IC50 (U2OS cells): 15 µM
Cell viability (HCT116 (WT) cells): decreased the viability
USP7-mediated cleavage of poly ubiquitin chains (USP7 [11]): inhibited in a dose-dependent manner
Cytotoxicity in HCT116 p53 (WT) versus HCT116 p53^−/− [12]: equipotent cytotoxicity in both cell types
IC50 (ANBL-6.BR cells; ANBL-6.BR, 48 hr): 9.85 µM
IC50 ratio (ANBL-6.BR/ANBL-6.WT) (ANBL-6.BR cells; p < 0.001): significantly less than bortezomib
Viability of patient MM cells [13]: dose-dependent decrease in the viability

CC(=O)c1cc([N+](=O)[O-])c(Sc2ccccc2)s1 [P22074]
Effect on viability of MM cell lines (MM cell lines): no significant effect
USP7 inhibitory activity (SAR) (USP7 [10]): inactive
USP7 inhibitory activity (SAR) (USP7 [10]; listed as 1): not active

CC(C)C[C@H](NC(=O)[C@H](Cc1ccccc1)NC(=O)c1cnccn1)B(O)O [bortezomib, reference compound]
Decrease in viability [14]: 10%–50%
Chymotrypsin-like (CT-L) proteasome activity (proteasome): blocks
IC50 (ANBL-6.WT cells; 48 h): 0.00232 µM
IC50 (ANBL-6.BR cells; 48 h): 0.0121 µM
